Assay results from ChEMBL document CHEMBL1142906, “Structure-activity relationships of novel piperazines as antagonists for the melanocortin-4 receptor” (Bioorg Med Chem, 2007).

Target: Melanocortin receptor 4 (Homo sapiens, UniProt P32245)
Test: Displacement of [125I]Nle4-D-Phe7-alpha-MSH from human MC4 receptor expressed in COS1 cells
Type: cell-based, COS-1

Chain of Melanocortin receptor 4 (P32245 whole entry): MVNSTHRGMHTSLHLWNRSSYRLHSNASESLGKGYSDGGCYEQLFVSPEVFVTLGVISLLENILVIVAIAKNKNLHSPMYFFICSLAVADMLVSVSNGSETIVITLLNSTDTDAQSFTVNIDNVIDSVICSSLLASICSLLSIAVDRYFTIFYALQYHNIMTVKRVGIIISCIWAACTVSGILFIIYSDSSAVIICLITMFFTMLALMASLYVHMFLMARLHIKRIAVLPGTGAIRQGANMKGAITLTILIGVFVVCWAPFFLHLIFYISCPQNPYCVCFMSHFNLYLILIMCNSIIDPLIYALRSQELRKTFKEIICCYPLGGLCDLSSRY

Row | IC50 [nM] | SMILES
1 | 228 | CC(C)N1CCN(C(CN2CCN(CCCc3ccccc3-c3ccc(-c4ccccc4)cc3)CC2)c2ccc(F)cc2)CC1 (racemic)
2 | 745 | CN1CCN(C(CN2CCN(CCCCc3cccc4ccccc34)CC2)c2ccccc2)CC1 (racemic)
3 | 2300 | CN1CCN(C(CN2CCN(CCCCc3cccc4ccccc34)CC2)c2ccccc2Br)CC1 (racemic)
4 | 263 | CN1CCN(C(CN2CCN(CCCCc3cccc4ccccc34)CC2)c2ccc([N+](=O)[O-])cc2)CC1 (racemic)
5 | 3590 | CN1CCN(C(CN2CCN(CCCCc3cccc4ccccc34)CC2)c2ccc(N)cc2)CC1 (racemic)
6 | 186 | CC(C)N1CCN(C(CN2CCN(CCc3ccccc3-c3ccccc3)CC2)c2ccc(F)cc2)CC1 (racemic)
7 | 18 | COc1ccc2ccccc2c1CCCCN1CCN(CC(c2ccc(F)cc2)N2CCN(C(C)(C)C)CC2)CC1 (racemic)
8 | 243 | CC(C)N1CCN(C(CN2CCN(CCCc3ccc(-c4ccccc4)cc3)CC2)c2ccc(F)cc2)CC1 (racemic)
9 | 208 | CN1CCN(C(CN2CCN(CCCc3cccc4ccccc34)CC2)c2ccc(F)cc2)CC1 (racemic)
10 | 118 | CN1CCN(C(CN2CCN(CCCCc3cccc4ccccc34)CC2)c2ccc(F)cc2)CC1 (racemic)
11 | 218 | CN1CCN(C(CN2CCN(CCCCCc3cccc4ccccc34)CC2)c2ccc(F)cc2)CC1 (racemic)
12 | 85.9 | CC(C)N1CCN(C(CN2CCN(CCCc3ccccc3-c3ccc(OC(F)(F)F)cc3)CC2)c2ccc(F)cc2)CC1 (racemic)
13 | 132 | CN1CCN(C(CN2CCN(CCCCc3cccc4ccccc34)CC2)c2ccc(Cl)cc2)CC1 (racemic)
14 | 336 | CN1CCN(C(CN2CCN(CCCCc3ccc4ccccc4c3)CC2)c2ccc(F)cc2)CC1 (racemic)
15 | 36.8 | CC(C)N1CCN(C(CN2CCN(CCCCc3c(Br)ccc4ccccc34)CC2)c2ccc(F)cc2)CC1 (racemic)
16 | 92.5 | CC(C)N1CCN(C(CN2CCN(CCCc3ccccc3-c3ccc(N(C)C)cc3)CC2)c2ccc(F)cc2)CC1 (racemic)
17 | 567 | CN1CCN(C(CN2CCN(CCc3cccc4ccccc34)CC2)c2ccc(F)cc2)CC1 (racemic)
18 | 42.6 | COc1ccc(-c2ccccc2CCCN2CCN(CC(c3ccc(F)cc3)N3CCN(C(C)C)CC3)CC2)cc1 (racemic)
19 | 756 | CN1CCN(C(CN2CCN(CCCCc3cccc4ccccc34)CC2)c2ccc(-c3ccccc3)cc2)CC1 (racemic)

Continued, molecule first:

Row | SMILES | IC50 [nM]
20 | CN1CCN(C(CN2CCN(CCCc3ccc4ccccc4c3)CC2)c2ccc(F)cc2)CC1 (racemic) | 1190
21 | Fc1ccc(C(CN2CCN(CCCCc3cccc4ccccc34)CC2)N2CCNCC2)cc1 (racemic) | 303
22 | CCN1CCN(C(CN2CCN(CCCCc3cccc4ccccc34)CC2)c2ccc(F)cc2)CC1 (racemic) | 105
23 | CCCN1CCN(C(CN2CCN(CCCCc3cccc4ccccc34)CC2)c2ccc(F)cc2)CC1 (racemic) | 177
24 | Fc1ccc(C(CN2CCN(CCCCc3cccc4ccccc34)CC2)N2CCN(C3CC3)CC2)cc1 (racemic) | 147
25 | CN1CCN(C(CN2CCN(CCCCc3cccc4ccccc34)CC2)c2cccc(F)c2)CC1 (racemic) | 653
26 | CN1CCN(C(CN2CCN(CCCCc3cccc4ccccc34)CC2)c2cccc(Br)c2)CC1 (racemic) | 565
27 | CN1CCN(C(CN2CCN(CCCCc3cccc4ccccc34)CC2)c2ccc(Br)cc2)CC1 (racemic) | 159
28 | Cc1ccc(C(CN2CCN(CCCCc3cccc4ccccc34)CC2)N2CCN(C)CC2)cc1 (racemic) | 296
29 | COc1ccc(C(CN2CCN(CCCCc3cccc4ccccc34)CC2)N2CCN(C)CC2)cc1 (racemic) | 871
30 | CN1CCN(C(CN2CCN(CCCCc3cccc4ccccc34)CC2)c2ccc(C(F)(F)F)cc2)CC1 (racemic) | 226
31 | COc1ccc(CCCCN2CCN(CC(c3ccc(F)cc3)N3CCN(C)CC3)CC2)c2ccccc12 (racemic) | 228
32 | CC(C)N1CCN(C(CN2CCN(CCCCc3c(O)ccc4ccccc34)CC2)c2ccc(F)cc2)CC1 (racemic) | 131
33 | CC(C)Oc1ccc2ccccc2c1CCCCN1CCN(CC(c2ccc(F)cc2)N2CCN(C(C)C)CC2)CC1 (racemic) | 22
34 | CCC(CC)N1CCN(C(CN2CCN(CCCCc3c(OC)ccc4ccccc34)CC2)c2ccc(F)cc2)CC1 (racemic) | 82.8
35 | COc1ccc2ccccc2c1CCCCN1CCN(CC(c2ccc(F)cc2)N2CCN(C3CCCC3)CC2)CC1 (racemic) | 47.2
36 | CC(C)N1CCN(C(CN2CCN(CCCCc3ccccc3-c3ccccc3)CC2)c2ccc(F)cc2)CC1 (racemic) | 65.1
37 | CC(C)N1CCN(C(CN2CCN(CCCc3cccc(-c4ccccc4)c3)CC2)c2ccc(F)cc2)CC1 (racemic) | 156

Row | SMILES | IC50 [nM]
38 | COc1cccc(-c2ccccc2)c1CCCN1CCN(CC(c2ccc(F)cc2)N2CCN(C(C)C)CC2)CC1 (racemic) | 15.2
39 | CC(C)N1CCN(C(CN2CCN(CCCc3ccccc3-c3ccccc3F)CC2)c2ccc(F)cc2)CC1 (racemic) | 36.8
40 | CC(C)N1CCN(C(CN2CCN(CCCc3ccccc3-c3ccc(Cl)cc3)CC2)c2ccc(F)cc2)CC1 (racemic) | 53.2
41 | Cc1ccc(-c2ccccc2CCCN2CCN(CC(c3ccc(F)cc3)N3CCN(C(C)C)CC3)CC2)cc1 (racemic) | 41.8
42 | CC(C)N1CCN(C(CN2CCN(CCCc3ccccc3-c3ccc(C(C)(C)C)cc3)CC2)c2ccc(F)cc2)CC1 (racemic) | 100
43 | CN1CCN(C(CN2CCN(Cc3cccc4ccccc34)CC2)c2ccc(F)cc2)CC1 (racemic) | 594
44 | Fc1ccc(C(CN2CCN(CCCCc3cccc4ccccc34)CC2)N2CCN(C3CCCCC3)CC2)cc1 (racemic) | 241
45 | CC(C)N1CCN(C(CN2CCN(CCCc3ccccc3-c3ccc(C(F)(F)F)cc3)CC2)c2ccc(F)cc2)CC1 (racemic) | 62.8
46 | Fc1ccc(C(CN2CCN(CCCCc3cccc4ccccc34)CC2)N2CCN(c3ccccc3)CC2)cc1 (racemic) | > 10000
47 | CN1CCN(C(CN2CCN(CCc3ccc4ccccc4c3)CC2)c2ccc(F)cc2)CC1 (racemic) | 1870
48 | COc1ccc2ccccc2c1CCCCN1CCN(CC(c2ccc(F)cc2)N2CCN(C(C)C)CC2)CC1 (racemic) | 12.7
49 | CC(C)N1CCN(C(CN2CCN(CCCCc3cccc4ccccc34)CC2)c2ccc(F)cc2)CC1 (racemic) | 72.3
50 | CCOc1ccc2ccccc2c1CCCCN1CCN(CC(c2ccc(F)cc2)N2CCN(C(C)C)CC2)CC1 (racemic) | 26
51 | CN1CCN(C(CN2CCN(CCCCCCc3cccc4ccccc34)CC2)c2ccc(F)cc2)CC1 (racemic) | 341
52 | CN1CCN(C(CN2CCN(Cc3ccc4ccccc4c3)CC2)c2ccc(F)cc2)CC1 (racemic) | 1250
53 | COc1ccc2ccccc2c1CCCCN1CCN(CC(c2ccc(F)cc2)N2CCN(C)CC2)CC1 (racemic) | 57.3
54 | COc1ccc2ccccc2c1CCCCN1CCN(CC(c2ccc(F)cc2)N2CCN(C(C)C)CC2)CC1 (single isomer, unassigned; (-)) | 8.13
55 | COc1ccc2ccccc2c1CCCCN1CCN(CC(c2ccc(F)cc2)N2CCN(C(C)C)CC2)CC1 (stereo in doubt; (+)-10bg) | 22
